# According to ChEMBL document CHEMBL4680207, “The discovery, design and synthesis of potent agonists of adenylyl cyclase type 2 by virtual screening combining biological evaluation” (Eur J Med Chem, 2020):
# Active and inactive are the calls of the source. The rule behind the calls is not given here.
# Columns and labels:
# Type in all cases: cell-based
# [1] = biological target: T1, Adenylate cyclase type 2 (Homo sapiens, UniProt Q08462); experiment: Agonist activity at recombinant human AC2 expressed in HEK293 cells assessed as increase in cAMP level by measuring cAMP level at 50 uM measured after 30 mins by LANCE Ultra cAMP Detection kit method relative to control
# T1 sequence (Q08462 whole entry): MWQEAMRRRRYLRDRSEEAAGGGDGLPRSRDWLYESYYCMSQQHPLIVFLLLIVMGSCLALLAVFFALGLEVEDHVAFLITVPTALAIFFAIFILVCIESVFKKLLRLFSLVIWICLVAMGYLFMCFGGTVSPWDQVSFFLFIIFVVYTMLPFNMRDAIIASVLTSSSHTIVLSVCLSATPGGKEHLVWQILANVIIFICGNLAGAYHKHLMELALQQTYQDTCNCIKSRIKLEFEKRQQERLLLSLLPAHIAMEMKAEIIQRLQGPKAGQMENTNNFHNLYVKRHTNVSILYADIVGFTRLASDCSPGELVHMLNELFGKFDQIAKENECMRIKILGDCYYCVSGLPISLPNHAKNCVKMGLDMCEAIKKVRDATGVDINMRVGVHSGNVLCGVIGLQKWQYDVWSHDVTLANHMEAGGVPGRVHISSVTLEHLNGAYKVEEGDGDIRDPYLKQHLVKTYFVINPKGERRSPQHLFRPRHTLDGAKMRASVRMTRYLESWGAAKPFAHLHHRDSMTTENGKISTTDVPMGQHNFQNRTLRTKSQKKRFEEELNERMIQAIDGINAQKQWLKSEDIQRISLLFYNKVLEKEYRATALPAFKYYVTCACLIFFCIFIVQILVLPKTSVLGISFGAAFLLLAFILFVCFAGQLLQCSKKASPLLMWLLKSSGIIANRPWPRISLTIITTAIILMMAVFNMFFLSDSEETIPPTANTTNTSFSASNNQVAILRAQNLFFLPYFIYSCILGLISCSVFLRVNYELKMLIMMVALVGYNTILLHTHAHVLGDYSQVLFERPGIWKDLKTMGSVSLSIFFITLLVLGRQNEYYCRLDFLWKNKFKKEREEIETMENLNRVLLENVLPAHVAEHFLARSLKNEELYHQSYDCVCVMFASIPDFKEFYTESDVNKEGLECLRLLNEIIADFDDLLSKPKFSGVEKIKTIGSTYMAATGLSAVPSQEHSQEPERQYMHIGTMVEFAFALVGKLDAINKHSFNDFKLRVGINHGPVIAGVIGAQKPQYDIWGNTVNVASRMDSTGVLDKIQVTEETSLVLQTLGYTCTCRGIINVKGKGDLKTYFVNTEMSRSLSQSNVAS
# [2] = biological target: T1, Adenylate cyclase type 2; experiment: Agonist activity at recombinant human AC2 expressed in HEK293 cells assessed as increase in cAMP level measured after 30 mins by LANCE Ultra cAMP Detection kit method
# [3] = biological target: T1, Adenylate cyclase type 2; experiment: Agonist activity at recombinant human AC2 expressed in HEK293 cells assessed as increase in cAMP level at 50 uM measured after 30 mins by LANCE Ultra cAMP Detection kit method; details: filed as agonist
# [4] = biological target: Adenylate cyclase type 8 (Homo sapiens, UniProt P40145); experiment: Agonist activity at recombinant human AC8 expressed in HEK293 cells assessed as increase in cAMP level at 50 uM measured after 30 mins by LANCE Ultra cAMP Detection kit method; details: hek293, 0.5 h
# Sequence of Adenylate cyclase type 8 (P40145 whole entry): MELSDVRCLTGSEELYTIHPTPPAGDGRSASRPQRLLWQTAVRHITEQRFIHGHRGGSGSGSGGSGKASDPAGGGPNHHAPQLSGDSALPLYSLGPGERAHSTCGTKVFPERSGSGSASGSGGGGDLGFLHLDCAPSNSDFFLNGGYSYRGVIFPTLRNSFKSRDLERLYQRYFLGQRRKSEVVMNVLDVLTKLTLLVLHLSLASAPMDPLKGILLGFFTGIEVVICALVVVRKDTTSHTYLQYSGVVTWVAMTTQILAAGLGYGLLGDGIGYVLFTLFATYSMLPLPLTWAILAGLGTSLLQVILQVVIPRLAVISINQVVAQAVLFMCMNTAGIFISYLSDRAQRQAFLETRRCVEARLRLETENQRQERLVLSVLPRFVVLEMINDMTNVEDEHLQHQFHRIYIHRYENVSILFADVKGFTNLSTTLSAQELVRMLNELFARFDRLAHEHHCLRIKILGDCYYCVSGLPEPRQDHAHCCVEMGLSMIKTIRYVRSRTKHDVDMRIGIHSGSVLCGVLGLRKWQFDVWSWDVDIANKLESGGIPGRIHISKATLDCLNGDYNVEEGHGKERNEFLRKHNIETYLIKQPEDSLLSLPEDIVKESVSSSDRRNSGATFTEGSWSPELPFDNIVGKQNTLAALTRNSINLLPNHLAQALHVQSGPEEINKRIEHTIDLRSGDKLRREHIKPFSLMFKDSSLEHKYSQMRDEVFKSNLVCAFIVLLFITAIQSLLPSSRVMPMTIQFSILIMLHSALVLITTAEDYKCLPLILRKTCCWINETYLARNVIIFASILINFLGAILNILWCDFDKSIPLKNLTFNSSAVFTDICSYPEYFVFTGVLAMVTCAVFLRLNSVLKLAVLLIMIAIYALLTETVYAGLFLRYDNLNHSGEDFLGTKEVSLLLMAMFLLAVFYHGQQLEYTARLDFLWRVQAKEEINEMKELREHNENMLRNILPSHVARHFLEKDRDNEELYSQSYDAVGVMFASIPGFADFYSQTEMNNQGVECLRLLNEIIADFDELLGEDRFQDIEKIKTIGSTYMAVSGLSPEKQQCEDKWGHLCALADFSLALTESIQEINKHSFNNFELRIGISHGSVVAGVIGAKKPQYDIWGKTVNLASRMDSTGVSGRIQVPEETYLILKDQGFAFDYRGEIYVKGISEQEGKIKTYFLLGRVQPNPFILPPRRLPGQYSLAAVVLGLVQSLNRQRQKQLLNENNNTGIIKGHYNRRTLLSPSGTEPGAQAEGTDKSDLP
Structure (SMILES),EC50 [2],Activity ([1]; filed as agonist),other results
CC[C@H]1OC2(C(=O)c3ccccc3C2=O)[C@H]2C(=O)N(c3ccccc3Cl)C(=O)[C@@H]12,,,Activity [1]: 0%
COc1ccc([C@H]2OC3(C(=O)c4ccccc4C3=O)[C@H]3C(=O)N(c4ccccc4F)C(=O)[C@@H]23)cc1,,,Activity [1]: 0.25%
CCOc1ccc(N2C(=O)[C@H]3[C@@H](c4ccc(C)cc4)OC4(C(=O)c5ccccc5C4=O)[C@H]3C2=O)cc1,10.8 µM,97.7%,
COc1cccc(N2C(=O)[C@H]3[C@@H](c4ccc(C)cc4)OC4(C(=O)c5ccccc5C4=O)[C@H]3C2=O)c1,0.96 µM,84.6%,
CCOc1ccc([C@H]2OC3(C(=O)c4ccccc4C3=O)[C@H]3C(=O)N(c4ccc(C)cc4)C(=O)[C@@H]23)cc1,24.8 µM,100%,
Cc1ccc([C@H]2OC3(C(=O)c4ccccc4C3=O)[C@H]3C(=O)N(c4ccc(F)c(Cl)c4)C(=O)[C@@H]23)cc1,0.52 µM,103%,
Cc1ccc([C@H]2OC3(C(=O)c4cccc(Cl)c4C3=O)[C@H]3C(=O)N(c4ccccc4Cl)C(=O)[C@@H]23)cc1 (mixture of isomers),0.301 µM,88.5%,
Cc1cc(C)cc(N2C(=O)[C@H]3[C@@H](c4ccccc4Cl)OC4(C(=O)c5ccccc5C4=O)[C@H]3C2=O)c1,,,Activity [1]: 7.14%
Cc1ccc([C@H]2OC3(C(=O)c4ccc(F)cc4C3=O)[C@H]3C(=O)N(c4ccccc4Cl)C(=O)[C@@H]23)cc1 (mixture of isomers),0.692 µM,80.8%,
Cc1ccc([C@H]2OC3(C(=O)c4ccccc4C3=O)[C@H]3C(=O)N(c4ccc(C)c(C)c4)C(=O)[C@@H]23)cc1,0.21 µM,104%,
CCc1ccc(N2C(=O)[C@H]3[C@@H](c4ccc(Cl)cc4)OC4(C(=O)c5ccccc5C4=O)[C@H]3C2=O)cc1,0.43 µM,102%,
CCC[C@H]1OC2(C(=O)c3ccccc3C2=O)[C@H]2C(=O)N(c3ccccc3Cl)C(=O)[C@@H]12,4.29 µM,59.6%,
Cc1ccccc1[C@H]1OC2(C(=O)c3ccccc3C2=O)[C@H]2C(=O)N(c3ccccc3Cl)C(=O)[C@@H]12,,,Activity [1]: 30.7%
Cc1ccc([C@H]2OC3(C(=O)c4ccc(Cl)cc4C3=O)[C@H]3C(=O)N(c4ccccc4Cl)C(=O)[C@@H]23)cc1 (mixture of isomers),0.236 µM,96.2%,
O=C1[C@H]2[C@@H](C3CCCCC3)OC3(C(=O)c4ccccc4C3=O)[C@H]2C(=O)N1c1ccccc1Cl,,55.6%,
CC/C=C(\CCC)[C@H]1OC2(C(=O)c3ccccc3C2=O)[C@H]2C(=O)N(c3ccccc3Cl)C(=O)[C@@H]12,,44.5%,
Cc1cccc([C@H]2OC3(C(=O)c4ccccc4C3=O)[C@H]3C(=O)N(c4cccc(C)c4)C(=O)[C@@H]23)c1,,84.7%,
Cc1ccc(N2C(=O)[C@H]3[C@@H](c4cccc(Cl)c4)OC4(C(=O)c5ccccc5C4=O)[C@H]3C2=O)cc1,5.05 µM,97.9%,
CC(C)=C[C@H]1OC2(C(=O)c3ccccc3C2=O)[C@H]2C(=O)N(c3ccccc3Cl)C(=O)[C@@H]12,,44.7%,
O=C1[C@H]2[C@@H](c3ccccc3)OC3(C(=O)c4ccccc4C3=O)[C@H]2C(=O)N1c1ccc(Cl)cc1,2.06 µM,91.5%,

Structure (SMILES),EC50 [2],Activity ([1]; filed as agonist),other results
Cc1ccc([C@H]2OC3(C(=O)c4ccccc4C3=O)[C@H]3C(=O)N(c4ccc(C)cc4F)C(=O)[C@@H]23)cc1,0.77 µM,107%,
Cc1cccc([C@H]2OC3(C(=O)c4ccccc4C3=O)[C@H]3C(=O)N(c4ccccc4Cl)C(=O)[C@@H]23)c1,6.81 µM,57.4%,
Cc1cc(C)cc(N2C(=O)[C@H]3[C@@H](c4ccc(Cl)cc4)OC4(C(=O)c5ccccc5C4=O)[C@H]3C2=O)c1,0.31 µM,96.9%,
Cc1ccc([C@H]2OC3(C(=O)c4ccccc4C3=O)[C@H]3C(=O)N(C4CCC4)C(=O)[C@@H]23)cc1,,,Activity [1]: 0%
Cc1ccc([C@H]2OC3(C(=O)c4ccccc4C3=O)[C@H]3C(=O)N(c4ccc(F)cc4)C(=O)[C@@H]23)cc1,1.64 µM,99.5%,
CCc1ccc([C@H]2OC3(C(=O)c4ccccc4C3=O)[C@H]3C(=O)N(c4ccc(C)cc4)C(=O)[C@@H]23)cc1,0.67 µM,95.9%,
O=C1[C@H]2[C@@H](C3CC3)OC3(C(=O)c4ccccc4C3=O)[C@H]2C(=O)N1c1ccccc1Cl,,,Activity [1]: 0%
O=C1[C@H]2[C@@H](c3ccc(Cl)cc3)OC3(C(=O)c4ccccc4C3=O)[C@H]2C(=O)N1c1cccc(F)c1,3.53 µM,99.9%,
O=C1[C@H]2[C@@H](c3ccccc3)OC3(C(=O)c4ccccc4C3=O)[C@H]2C(=O)N1c1cccc(Cl)c1,8.1 µM,103%,Activity [3]: Active; Activity ([2]; filed as agonist): Dose-dependent effect
COc1ccc(N2C(=O)[C@H]3[C@@H](c4ccc(C)cc4)OC4(C(=O)c5ccccc5C4=O)[C@H]3C2=O)cc1,17.1 µM,93.6%,
Cc1ccc([C@H]2OC3(C(=O)c4ccccc4C3=O)[C@H]3C(=O)N(c4ccc(C)c(Cl)c4)C(=O)[C@@H]23)cc1,0.75 µM,96.4%,
COc1cccc([C@H]2OC3(C(=O)c4ccccc4C3=O)[C@H]3C(=O)N(c4ccc(C)cc4)C(=O)[C@@H]23)c1,1.6 µM,97.8%,
O=C1[C@H]2[C@@H](Cc3ccccc3)OC3(C(=O)c4ccccc4C3=O)[C@H]2C(=O)N1c1ccccc1Cl,,,Activity [1]: 0%
O=C1[C@H]2[C@@H](CCc3ccccc3)OC3(C(=O)c4ccccc4C3=O)[C@H]2C(=O)N1c1ccccc1Cl,,,Activity [1]: 32%
Cc1ccc([C@H]2OC3(C(=O)c4ccccc4C3=O)[C@H]3C(=O)N(C(C)(C)C)C(=O)[C@@H]23)cc1,,,Activity [1]: 31%
O=C1[C@H]2[C@@H](c3ccc(-c4ccccc4)cc3)OC3(C(=O)c4ccccc4C3=O)[C@H]2C(=O)N1c1ccccc1Cl,,,Activity [1]: 5.04%
Cc1ccc([C@H]2OC3(C(=O)c4cccc(C)c4C3=O)[C@H]3C(=O)N(c4ccccc4Cl)C(=O)[C@@H]23)cc1 (mixture of isomers),1.08 µM,59.3%,
CCOC(=O)C1(Cc2ccc(Cl)cc2Cl)C(=O)Nc2ccccc21 (stereo not given),,,Activity [4]: Active
Cc1ccc([C@H]2OC3(C(=O)c4cccc(Br)c4C3=O)[C@H]3C(=O)N(c4ccccc4Cl)C(=O)[C@@H]23)cc1 (mixture of isomers),11.6 µM,76%,
Cc1ccc([C@H]2OC3(C(=O)c4ccccc4C3=O)[C@H]3C(=O)N(c4ccccc4Cl)C(=O)[C@@H]23)cc1,0.17 µM,93.6%,

Structure (SMILES),EC50 [2],Activity ([1]; filed as agonist),other results
Cc1ccc([C@H]2OC3(C(=O)c4ccccc4C3=O)[C@H]3C(=O)N(C4CCCCC4)C(=O)[C@@H]23)cc1,1.29 µM,69.5%,
COc1cc(C)ccc1N1C(=O)[C@H]2[C@@H](c3cccc(C)c3)OC3(C(=O)c4ccccc4C3=O)[C@H]2C1=O,5.96 µM,103%,
CC(C)c1ccc([C@H]2OC3(C(=O)c4ccccc4C3=O)[C@H]3C(=O)N(c4ccc(F)cc4)C(=O)[C@@H]23)cc1,1.3 µM,89.3%,
CCOc1ccc(N2C(=O)[C@H]3[C@@H](c4ccccc4)OC4(C(=O)c5ccccc5C4=O)[C@H]3C2=O)cc1,32.3 µM,82.3%,
Cc1ccc([C@H]2OC3(C(=O)c4ccccc4C3=O)[C@H]3C(=O)N(CC(C)C)C(=O)[C@@H]23)cc1,,56.7%,
Cc1ccc([C@H]2OC3(C(=O)c4ccccc4C3=O)[C@H]3C(=O)N(C4CC4)C(=O)[C@@H]23)cc1,3.37 µM,70.8%,
COc1ccc(OC)c(N2C(=O)[C@H]3[C@@H](c4ccc(C)cc4)OC4(C(=O)c5ccccc5C4=O)[C@H]3C2=O)c1,1.2 µM,103%,
Cc1ccc([C@H]2OC3(C(=O)c4ccc(C)cc4C3=O)[C@H]3C(=O)N(c4ccccc4Cl)C(=O)[C@@H]23)cc1 (mixture of isomers),0.3 µM,98.1%,
Cc1ccc([C@H]2OC3(C(=O)c4ccccc4C3=O)[C@H]3C(=O)N(C(C)C)C(=O)[C@@H]23)cc1,7.34 µM,59%,
Cc1ccc(N2C(=O)[C@H]3[C@@H](c4ccccc4)OC4(C(=O)c5ccccc5C4=O)[C@H]3C2=O)cc1Cl,,80.3%,
CC(C)[C@H]1OC2(C(=O)c3ccccc3C2=O)[C@H]2C(=O)N(c3ccccc3Cl)C(=O)[C@@H]12,,,Activity [1]: 27.2%
CCOc1ccc(N2C(=O)[C@H]3[C@@H](c4ccc(F)cc4)OC4(C(=O)c5ccccc5C4=O)[C@H]3C2=O)cc1,39.3 µM,91%,
O=C1[C@H]2[C@@H](c3ccc(Cl)cc3)OC3(C(=O)c4ccccc4C3=O)[C@H]2C(=O)N1c1ccc(F)cc1,0.53 µM,100%,
Cc1ccc([C@H]2OC3(C(=O)c4cccc(F)c4C3=O)[C@H]3C(=O)N(c4ccccc4Cl)C(=O)[C@@H]23)cc1 (mixture of isomers),0.345 µM,59.1%,
CCc1ccccc1N1C(=O)[C@H]2[C@@H](c3ccccc3Cl)OC3(C(=O)c4ccccc4C3=O)[C@H]2C1=O,,,Activity [1]: 20%
Cc1ccc([C@H]2OC3(C(=O)c4ccccc4C3=O)[C@H]3C(=O)N(C4CCCC4)C(=O)[C@@H]23)cc1,3.44 µM,64.9%,
O=C1[C@H]2[C@@H](c3ccc4ccccc4c3)OC3(C(=O)c4ccccc4C3=O)[C@H]2C(=O)N1c1ccccc1Cl,,,Activity [1]: 0%
Cc1ccc([C@H]2OC3(C(=O)c4ccccc4C3=O)[C@H]3C(=O)N(C)C(=O)[C@@H]23)cc1,3.08 µM,62%,
Cc1ccc(Cl)cc1N1C(=O)[C@H]2[C@@H](c3ccccc3)OC3(C(=O)c4ccccc4C3=O)[C@H]2C1=O,3.12 µM,101%,
